Results: patent publication US20220381790A1, “SELECTION AND BLOCKADE OF FERTILIZATION COMPETENT MALE AND FEMALE GAMETES” (University of Virginia Patent Foundation, priority 2019, published 2022)
pKd: −log10 of the molar value. Entries after “also recorded” stand apart in the source; their conditions may differ.

Legend:
C2C12 myoblasts = assay: Sperm:myoblast fusion assay; format: cell-based, mouse; settings: 4 h co-culture; for sperm:myoblast fusion (Calcein-AM+ myoblasts): Calcein-AM labeled sperm, 50 μg/ml GST-BAI1-TSR on sperm, 80 μM EHT-1864, 5 μg/ml Cytochalasin D, 4% PFA; for DiI+ myoblasts (transfer of the dye DiI from the sperm to the myoblasts): DiI-labeled sperm
Experimental: To stain sperm with the dyes Calcein-AM or DiI, caudal sperm were allowed to swim in TYH+0.75 mM Methyl-beta-cyclodextrin (MBCD)^67 for 15 min, counted and stained with 4 μM Calcein red orange-AM (Invitrogen) for 30 min in PBS at room temperature or with 5 μg/ml DiI (Invitrogen) for 30 min at 37° C. in HBSS, as previously described^60. Cells were washed, counted and resuspended in DMEM medium supplemented with 20% heat inactivated FBS.
Sperm:myoblast fusion experiments. C2C12 murine skeletal muscle myoblasts (ATCC) were maintained at sub-confluent densities in DMEM medium supplemented with 20% heat inactivated FBS at 37° C., 8.5% CO2. Cells were trypsinized, counted and plated in 4-well LabTek II Permanox chamber slides (25,000 cells/well). After 24 h, myoblasts were treated with appropriate buffer alone, or 5 μg/ml Cytochalasin D (Sigma), 80 μM RAC1 inhibitor (EHT-1864), or incubated with Abs (BAI3 [R&D Systems, MAB39651] or CD9 [BD Biosciences]) for 30 min at 37° C., 8.5% CO2 prior to the sperm co-incubation. Alternatively, myoblasts were fixed with 4% PFA for 20 min and washed several times. Calcein-AM+ sperm (250,000 sperm/well) were added and incubated for 4 h at 37° C., 8.5% CO2. The blocking agents were also present during the co-incubation except for Cytochalasin D, which was used only during the preincubation to avoid affecting the sperm. Sperm were pretreated with 50 μg/ml GST or 50 μg/ml GST-BAI1-TSR for 30 min and then added to the myoblasts. C2C12 myoblasts with shRNA-mediated Elmo2 knockdown have been described previously^25. After the 4 h co-incubation, myoblasts were washed, stained with Hoechst and mounted. Cells were analyzed the same day and 6-8 fields/well were photographed using the Axio Imager 2 with Apotome (Zeiss). Image J cell counter plugin software was used to quantitate nuclei number. The fusion index was calculated as the percentage of Calcein AM^+ myoblasts in the experimental group normalized to the control untreated cells.

sperm = assay: Sperm progressive motility; format: cell-based, mouse; settings: for progressive motility of the sperm: 10 μg/ml Annexin V, 50 μg/ml GST or 50 μg/ml GST-BAI1-TSR
Experimental: To evaluate the role of PtdSer exposed on sperm, cumulus oocyte complexes (n=30-60) were inseminated with 2-4×10^4 sperm capacitated for 60-90 min in TYH+BSA (in most of the experiments) or in TYH+MBCD^67 (in the experiment to test the effect of Annexin V in fertilization, FIG. 1K). During the last 30 min of capacitation, sperm were incubated with 10 μg/ml Annexin V (Ebiosciences), 50 μg/ml GST or 50 μg/ml GST-BAI1-TSR. After co-culture of oocytes and sperm in 100 μl drops of high calcium human tubal fluid (HTF) supplemented with 1 mM reduced glutathione (GSH) medium for 4 hours^67, eggs were washed several times and transferred to KSOM medium (EMD Millipore). The percentage of 2-cell embryos (fertilized eggs) was determined at 24 hours post insemination. Sperm motility upon incubation with control medium, Annexin V, GST or GST-BAI1-TSR was graded as progressive motility, non-progressive motility, and immotility, according to the criteria of the 5th Edition of the World Health Organization (WHO) Laboratory Manual for the Examination and Processing of Human Semen. The non-progressive motility and immotility numbers were grouped together. To test the soluble head group of PtdSer, O-Phospho-L-Serine (Sigma) and its control O-Phospho-D-Serine (Sigma) in IVF assays, ˜20 ZP-free oocytes isolated from wt mice were incubated 1×10^3 capacitated sperm in 20-μl droplets for 1 h in the presence of 1 mM O-Phospho-L-Serine or O-Phospho-D-Serine. After washes and an overnight incubation the percentage of 2-cell embryos was evaluated.

RAC1 in ZP-free oocytes = assay: Sperm DNA decondensation assay with RAC1 inhibitor; format: cell-based, mouse; settings: 80 μM, oocytes preincubated 1-2 h, inhibitor present during 1 h insemination
Experimental: To evaluate the role of RAC1, ZP-free oocytes were prepared as described above, loaded with 10 μg/ml DAPI (BioRad) for 20 min at 37° C., 5% CO2, and washed several times in TYH+BSA 3. Twenty oocytes, either untreated or previously incubated with RAC1 inhibitor (80 μM, EHT-1864, Sigma) for 1-2 h were inseminated with 1000 capacitated sperm for 1 h in 20 μl drops of TYH+BSA medium at 37° C., 5% CO2. RAC1 inhibitor was also present the fertilization steps. After 3 washes, oocytes were fixed in 0.25% glutaraldehyde and 0.1% paraformaldehyde for 20 min at room temperature, washed and mounted. The percentage of oocytes with DAPI^+ decondensed sperm nuclei (typically 1-2/oocyte) was evaluated by microscopy.

[1] = system: ZP-free wild-type oocytes; assay: Binding of 2 μm carboxylate modified beads to oocytes; format: cell-based, mouse; settings: beads pretreated with 50 μg/ml GST-BAI1-TSR for 30 min; oocytes with >5 bound beads scored
Experimental: The presence of functional PtdSer receptors on mouse ZP-free wild-type oocytes was evaluated by incubation with 2 μm carboxylate modified red (580/605) beads (1:400, Invitrogen, FluoSpheres) for 2 h in TYH+BSA at 37° C., 5% CO2. Beads were pre-treated with medium only, 50 μg/ml GST or 50 μg/ml GST-BAI1-TSR for 30 min. Oocytes were washed 6 times in TYH+BSA, stained with CD9 antibody for 30 min at 37° C., 5% CO2 in TYH+BSA, fixed in 4% PFA+1% BSA and stained with Hoechst. The percentage of oocytes with bound beads was determined by microscopy. We scored oocytes with >5 bound beads, since accurately counting individual beads, particularly in oocytes of the control groups that bound multiple beads was unfeasible.

PtdSer exposed on sperm = assay: In vitro fertilization assay, masking PtdSer on sperm; format: cell-based, mouse; settings: 2-cell embryos at 24 h
Experimental: In vitro fertilization (IVF) assays. IVF was performed as previously described^68. Briefly, 4-5 week old female mice were super-ovulated by intraperitoneal injections of 5 IU of pregnant mare serum gonadotropin (PMSG, Prospec) and 5 IU of human chorionic gonadotropin (hCG, Sigma) 48 hours (h) later. Metaphase II oocytes were recovered 13 h after hCG, and were: 1) directly used as cumulus oocyte complexes (COC), 2) freed from cumulus cells by a brief incubation with 3 mg/ml hyaluronidase (Sigma) in 0.01% poly vinyl alcohol (PVA)/FHM medium (EMD Millipore). These oocytes were labeled as Zona pellucida (ZP)-intact oocytes; or 3) freed from cumulus cells and ZP using Tyrode's solution (Sigma) (ZP-free oocytes). Sperm were collected from the cauda epididymides of adult (>10 week-old) wild-type male mice and capacitated for 90 min in TYH+BSA medium (described above, Sperm staining section). […]
To evaluate the role of PtdSer exposed on sperm, cumulus oocyte complexes (n=30-60) were inseminated with 2-4×10^4 sperm capacitated for 60-90 min in TYH+BSA (in most of the experiments) or in TYH+MBCD^67 (in the experiment to test the effect of Annexin V in fertilization, FIG. 1K). […] The percentage of 2-cell embryos (fertilized eggs) was determined at 24 hours post insemination. […] After washes and an overnight incubation the percentage of 2-cell embryos was evaluated.

ZP-free oocytes = assay: In vitro fertilization assay, competition with soluble head group of PtdSer; format: cell-based, mouse; settings: 1 mM, ZP-free oocytes with capacitated sperm for 1 h, 2-cell embryos after overnight incubation
Experimental: In vitro fertilization (IVF) assays. IVF was performed as previously described^68. Briefly, 4-5 week old female mice were super-ovulated by intraperitoneal injections of 5 IU of pregnant mare serum gonadotropin (PMSG, Prospec) and 5 IU of human chorionic gonadotropin (hCG, Sigma) 48 hours (h) later. Metaphase II oocytes were recovered 13 h after hCG, and were: 1) directly used as cumulus oocyte complexes (COC), 2) freed from cumulus cells by a brief incubation with 3 mg/ml hyaluronidase (Sigma) in 0.01% poly vinyl alcohol (PVA)/FHM medium (EMD Millipore). These oocytes were labeled as Zona pellucida (ZP)-intact oocytes; or 3) freed from cumulus cells and ZP using Tyrode's solution (Sigma) (ZP-free oocytes). Sperm were collected from the cauda epididymides of adult (>10 week-old) wild-type male mice and capacitated for 90 min in TYH+BSA medium (described above, Sperm staining section). All the incubations were performed in medium drops under paraffin oil (Sigma) at 37° C., 5% CO2 atmosphere. To evaluate the role of PtdSer exposed on sperm, cumulus oocyte complexes (n=30-60) were inseminated with 2-4×10^4 sperm capacitated for 60-90 min in TYH+BSA (in most of the experiments) or in TYH+MBCD^67 (in the experiment to test the effect of Annexin V in fertilization, FIG. 1K). During the last 30 min of capacitation, sperm were incubated with 10 μg/ml Annexin V (Ebiosciences), 50 μg/ml GST or 50 μg/ml GST-BAI1-TSR. After co-culture of oocytes and sperm in 100 μl drops of high calcium human tubal fluid (HTF) supplemented with 1 mM reduced glutathione (GSH) medium for 4 hours^67, eggs were washed several times and transferred to KSOM medium (EMD Millipore). The percentage of 2-cell embryos (fertilized eggs) was determined at 24 hours post insemination. […] After washes and an overnight incubation the percentage of 2-cell embryos was evaluated.

[2] = annexin V for PS; cited from earlier work

O=c1cc(CN2CCOCC2)occ1OCCCCCSc1ccnc2cc(C(F)(F)F)ccc12 [EHT-1864, reference compound]
sperm:myoblast fusion (Calcein-AM+ myoblasts) (C2C12 myoblasts): potently blocked
DiI+ myoblasts (transfer of the dye DiI from the sperm to the myoblasts) (C2C12 myoblasts): blocked
sperm motility (sperm; sperm incubated with EHT-1864 alone under the assay conditions): no reduction in the motility
number of oocytes with decondensed sperm DNA (RAC1 in ZP-free oocytes): significant reduction

BAI1-TSR: soluble extracellular fragment of the PtdSer recognition receptor BAI1 (residues 202-585) fused to glutathione-S-transferase; SEQ ID NOs: 1 and 2
sperm:myoblast fusion (Calcein-AM+ myoblasts) (C2C12 myoblasts): significantly decreased the fusion
binding of carboxylate modified beads to oocytes [1]: significantly decreased
progressive motility of the sperm (sperm): not affected
progressive motility of the sperm (sperm; listed as GST-BAI1-TSR): No significant differences
effect on fertilization (2-cell embryos) (PtdSer exposed on sperm; sperm incubated with 50 μg/ml GST-BAI1-TSR): significantly reduced fertilization

N[C@H](COP(=O)(O)O)C(=O)O [Phospho-D-Serine, O-Phospho-D-Serine]
effect on fertilization (2-cell embryos) (ZP-free oocytes): did not inhibit fertilization

N[C@@H](COP(=O)(O)O)C(=O)O [Phospho-L-Serine, O-Phospho-L-Serine]
effect on fertilization (2-cell embryos) (ZP-free oocytes): significant reduction in fertilization
inhibition at 1000 µM (ZP-free oocytes; Mus musculus, Oocyte, read-out: partial inhibition of fertilization): 30 to 40%

C=C1[C@@H](C)[C@H]2[C@H](Cc3ccccc3)NC(=O)[C@]23[C@H](OC(C)=O)/C=C/[C@@](C)(O)C(=O)[C@@H](C)C/C=C/[C@H]3[C@@H]1O [cytochalasin D, reference compound]
sperm:myoblast fusion (Calcein-AM+ myoblasts) (C2C12 myoblasts): abrogated

GST: glutathione-S-transferase control protein, SEQ ID NO: 1 [reference compound]
progressive motility of the sperm (sperm): No significant differences

Annexin V: PtdSer-binding protein reagent (Ebiosciences) used to mask PtdSer on sperm; highest affinity of the three blocking agents
pKd [2]: 8.18
progressive motility of the sperm (sperm): not affected; also recorded: No significant differences
reduction in fertilization (PtdSer exposed on sperm; 10 μg/ml Annexin V on capacitated caudal sperm, in three out of four independent experiments): > 85%

paraformaldehyde
sperm:myoblast fusion (Calcein-AM+ myoblasts) (C2C12 myoblasts): abrogated
DiI+ myoblasts (transfer of the dye DiI from the sperm to the myoblasts) (C2C12 myoblasts): blocked
